Assay results taken from ChEMBL document CHEMBL1268942, “Novel selective anti-androgens with a diphenylpentane skeleton” (Bioorg Med Chem Lett, 2010).

Tested on: not listed separately
Assay: Toxicity in androgen-dependent mouse SC3 cells at 30 uM
Type: cell-based
Conditions: sc-3, 30 µM

With CCC(CC)(c1ccc(OC[C@@H](O)CO)c(C)c1)c1ccc(O[C@@H]2CN(Cc3ccccc3)C[C@@H]2O)c(C)c1 the Activity was “Toxic”.
In the case of CCC(CC)(c1ccc(OCC(O)C(C)(C)Cc2ccc3ccccc3c2)c(C)c1)c1ccc(OC[C@@H](O)CO)c(C)c1 (stereo partly drawn), the Activity is reported as “Toxic”.
For CCC(CC)(c1ccc(OCC(O)C23CC4CC(CC(C4)C2)C3)c(C)c1)c1ccc(OC[C@@H](O)CO)c(C)c1 (stereo partly drawn), the Activity was “Toxic”.
With CCC(CC)(c1ccc(OCC(=O)C(C)(C)Cc2ccccc2)c(C)c1)c1ccc(OC[C@@H](O)CO)c(C)c1 the Activity was “Toxic”.
With CCC(CC)(c1ccc(OCC(O)C(C)(C)CCCCc2ccccc2)c(C)c1)c1ccc(OC[C@@H](O)CO)c(C)c1 (stereo partly drawn) the Activity was “Toxic”.

Tested on: HL-60
Assay: Selectivity index, ratio of EC50 for Vitamin-D activity at VDR receptor in human HL60 cells to EC50 for antiandrogen activity against androgen receptor in androgen-dependent mouse SC3 cells
Type: cell-based
Conditions: not given

Going from CCC(CC)(c1ccc(OCC(O)C(C)(C)CCc2ccccc2)c(C)c1)c1ccc(OC[C@@H](O)CO)c(C)c1 (stereo partly drawn) to CCC(CC)(c1ccc(OCC(O)C(C)(C)CCCc2ccccc2)c(C)c1)c1ccc(OC[C@@H](O)CO)c(C)c1 (stereo partly drawn), the Ratio EC50 rises from 8.1 to 28.

CCC(CC)(c1ccc(OCC(=O)C(C)(C)CCc2ccccc2)c(C)c1)c1ccc(OC[C@@H](O)CO)c(C)c1 and CCC(CC)(c1ccc(OCC(=O)C(C)(C)CCCc2ccccc2)c(C)c1)c1ccc(OC[C@@H](O)CO)c(C)c1 cannot be ordered by Ratio EC50: 21 for the first, greater than 3.1 for the second.

Going from CCC(CC)(c1ccc(OCC(O)C23CC4CC(CC(C4)C2)C3)c(C)c1)c1ccc(OC[C@@H](O)CO)c(C)c1 (stereo partly drawn) to CCC(CC)(c1ccc(OCC(O)C(C)(C)Cc2ccccc2)c(C)c1)c1ccc(OC[C@@H](O)CO)c(C)c1 (stereo partly drawn), the Ratio EC50 rises from less than 2.2 to 6.5.

With CCC(CC)(c1ccc(OCC(=O)C(C)(C)Cc2ccccc2)c(C)c1)c1ccc(OC[C@@H](O)CO)c(C)c1 the Ratio EC50 was less than 2.1.

Target: T1, Androgen receptor (Homo sapiens, UniProt P10275)
T1 sequence (P10275 whole entry): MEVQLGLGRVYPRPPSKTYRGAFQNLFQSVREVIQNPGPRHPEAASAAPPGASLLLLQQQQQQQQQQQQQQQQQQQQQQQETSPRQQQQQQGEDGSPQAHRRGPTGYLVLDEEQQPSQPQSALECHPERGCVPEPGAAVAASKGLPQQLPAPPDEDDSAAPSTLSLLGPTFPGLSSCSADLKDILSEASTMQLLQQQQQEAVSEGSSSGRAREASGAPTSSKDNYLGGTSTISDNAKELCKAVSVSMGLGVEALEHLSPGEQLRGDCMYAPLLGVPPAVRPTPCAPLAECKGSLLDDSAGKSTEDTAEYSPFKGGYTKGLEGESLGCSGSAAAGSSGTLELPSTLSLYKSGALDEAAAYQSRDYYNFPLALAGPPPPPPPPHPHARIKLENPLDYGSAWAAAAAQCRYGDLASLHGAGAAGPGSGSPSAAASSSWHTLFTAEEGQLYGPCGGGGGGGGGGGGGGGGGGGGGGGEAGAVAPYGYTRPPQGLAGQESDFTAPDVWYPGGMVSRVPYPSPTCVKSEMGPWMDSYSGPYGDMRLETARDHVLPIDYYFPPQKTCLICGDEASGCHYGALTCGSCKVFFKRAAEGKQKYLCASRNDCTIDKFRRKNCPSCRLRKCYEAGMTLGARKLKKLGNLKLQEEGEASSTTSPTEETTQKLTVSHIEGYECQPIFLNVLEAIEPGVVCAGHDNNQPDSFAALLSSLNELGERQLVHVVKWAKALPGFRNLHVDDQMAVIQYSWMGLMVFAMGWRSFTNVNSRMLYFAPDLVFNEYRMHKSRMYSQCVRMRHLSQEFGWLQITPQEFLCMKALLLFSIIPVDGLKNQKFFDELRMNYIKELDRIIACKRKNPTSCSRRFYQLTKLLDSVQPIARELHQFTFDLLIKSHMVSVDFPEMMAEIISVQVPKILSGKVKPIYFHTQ
Assay: Binding affinity to androgen receptor
Conditions: not given

CCC(CC)(c1ccc(OC[C@@H](O)CO)c(C)c1)c1ccc(OC[C@H](O)C(C)(C)C)c(C)c1 and CCC(CC)(c1ccc(OC[C@H](O)CO)c(C)c1)c1ccc(OC[C@H](O)C(C)(C)C)c(C)c1 are the same in Ki: 1000 nM for the first, 1000 nM for the second.

Going from CCC(CC)(c1ccc(OCC(=O)C(C)(C)C)c(C)c1)c1ccc(OC[C@@H](O)CO)c(C)c1 to CCC(CC)(c1ccc(OCC(=O)C(C)(C)C)c(C)c1)c1ccc(OC[C@H](O)CO)c(C)c1, the Ki falls from 1800 nM to 1100 nM (1.6-fold).

CCC(CC)(c1ccc(OC[C@@H](O)CO)c(C)c1)c1ccc(OC[C@@H](O)C(C)(C)C)c(C)c1 and CCC(CC)(c1ccc(OC[C@H](O)CO)c(C)c1)c1ccc(OC[C@@H](O)C(C)(C)C)c(C)c1 are the same in Ki: 1100 nM for the first, 1100 nM for the second.
